Source: patent US6072057A, “1H-4(5)-cyclo-substituted imidazole derivatives as histamine H3 receptor agents” (Gliatech Inc., priority 1998, dated 2000)
Read-outs that look alike come from different tables or passages of the source.

How the values were obtained:
Histamine H3 receptor = biological target: T1, Histamine H3 receptor (Rattus norvegicus, UniProt Q9QYN8); assay: In Vitro Histamine H3 Receptor Binding Analysis ([3H]-Nα-methylhistamine, rat cortical membranes); conditions: pH 7.4, 25° C., 40 minutes
T1 construct: Rat cortices were mechanically homogenized; from tissue; host or cells: rat cerebral cortex membranes
T1 sequence (Q9QYN8 whole entry): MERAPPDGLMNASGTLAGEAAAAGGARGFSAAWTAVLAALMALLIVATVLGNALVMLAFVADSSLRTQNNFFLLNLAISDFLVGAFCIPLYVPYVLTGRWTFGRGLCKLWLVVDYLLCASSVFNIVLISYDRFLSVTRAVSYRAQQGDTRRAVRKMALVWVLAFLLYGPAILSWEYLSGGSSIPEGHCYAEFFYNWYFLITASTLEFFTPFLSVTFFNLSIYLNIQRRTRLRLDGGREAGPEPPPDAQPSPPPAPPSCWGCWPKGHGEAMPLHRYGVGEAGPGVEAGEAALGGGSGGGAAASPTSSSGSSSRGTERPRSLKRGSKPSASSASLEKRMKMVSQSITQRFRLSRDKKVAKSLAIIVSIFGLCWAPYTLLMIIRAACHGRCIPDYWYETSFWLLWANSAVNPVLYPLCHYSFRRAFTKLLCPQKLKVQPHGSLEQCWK
Experimental: Histamine H3 receptor affinity was determined in rat cortical membranes using the H3 selective agonist ligand, [^3 H]-N^α -methylhistamine (78.9 Ci/mmole, DuPont NEN Research Products, Boston, Mass.) according to the method of West et al., (1990) Mol. Pharmacol. 38: 610-613 with modifications. Briefly, animals were sacrificed by decapitation and the cerebral cortex was rapidly removed. Rat cortices were mechanically homogenized with an Omni 1000 motor driven homogenizer in 10 volumes (wt/vol) of Krebs-Ringers Hepes buffer (pH 7.4) containing the following protease inhibitors; EDTA (10 mM), PMSF (0.1 mM), chymostatin (0.2 mg/50 mL) and leupeptin (0.2 mg/50 mL). The homogenate was centrifuged in a Sorvall at ~40,000× g for 30 min. […] Protein concentrations were determined by Coomassie Plus Protein Assay (Pierce, Rockford, Ill.).
The binding assay was carried out in polypropylene tubes in a total volume of 0.4 ml of 50 mM Na^+ Phosphate buffer (pH 7.4), containing 150-200 μg of tissue protein, 0.8-1.2 nM [^3 H]-N^α -methylhistamine and 0.3 to 10,000 nM GT-2016. […] Filters were transferred to polyethylene minivials and counted in 3.5 ml of scintillation fluid (Ecolume, ICN Biomedicals, Inc.). […] Saturation and competition experiments were analyzed with the ReceptorFit saturation and competition curve fittingprograms (Lundon Software, Inc., Cleveland, OH).

H3 histamine receptor = conditions: tested as a racemic mixture; cited from earlier work
H3 receptor [1] = conditions: cited from earlier work
[2] = intraventricular, rabbits; cited from earlier work
[3] = intraventricular, saline and pentobarbital-treated rats; cited from earlier work
[4] = system: synthesis and release of histamine; conditions: in vivo studies; cited from earlier work
H3 receptor [5] = conditions: cat (Lin et al., 1990); cited from earlier work
H3 receptor [6] = conditions: rats; cited from earlier work

## NC1CCC(c2c[nH]cn2)CC1 (stereo not drawn)
Histamine H3 receptor
  Ki: 20 nM

## NC1CC1c1c[nH]cn1 (racemic) [2-(4-imidazoyl)-cyclopropylamine]
H3 histamine receptor
  H3 histamine receptor agonist activity: moderate

## NCCc1c[nH]cn1 [histamine]
H3 receptor [1]
  stimulation of the H3 autoreceptor: capable of stimulating this autoreceptor
[2]
  arousal EEG pattern: induces the appearances of an arousal EEG pattern
[3]
  spontaneous locomotor activity, grooming and exploratory behavior: increased

## S=C(NC1CCCCC1)N1CCC(c2cnc[nH]2)CC1 [thioperamide]
[4]
  synthesis and release of histamine: can increase
H3 receptor [5]
  wakefulness: enhanced wakefulness in a dose-dependent fashion
H3 receptor [6]
  slow wave and REM sleep: decrease slow wave and REM sleep
  wakefulness: increase wakefulness
